Measurements: patent US20080114005A1, “Fibrate Compounds Having Ppar Agonist Activity” (Dr. Reddy's Laboratories Limited, priority 2004, published 2008)

melting point [°C] | Structure (SMILES)
226 to 228 | Cc1nc2ccccc2c(=O)n1CCNc1ccc(SC(C)(C)C(=O)O)cc1 [Example 2, 2-Methyl-2-{4-[2-(2-methyl-4-oxo-4H-quinazolin-3-yl)-ethylamino]-phenylsulfanyl}-propionic acid]
124 to 126 | CCc1nc2ccccc2c(=O)n1CCNc1ccc(SC(C)(C)C(=O)O)cc1 [Example 4, 2-{4-[2-(2-Ethyl-4-oxo-4H-quinazolin-3-yl)-ethylamino]-phenylsulfanyl}-2-methyl-propionic acid]
162 to 164 | CCCc1nc2ccccc2c(=O)n1CCNc1ccc(SC(C)(C)C(=O)O)cc1 [Example 6, 2-Methyl-2-{4-[2-(4-oxo-2-propyl-4H-quinazolin-3-yl)-ethylamino]-phenylsulfanyl}-propionic acid]
162 to 164 | Cc1nc2ccccc2c(=O)n1CCCNc1ccc(SC(C)(C)C(=O)O)cc1 [Example 8, 2-Methyl-2-{4-[3-(2-methyl-4-oxo-4H-quinazolin-3-yl)-propylamino]-phenylsulfanyl}-propionic acid]
60 to 62 | CCc1nc2ccccc2c(=O)n1CCCNc1ccc(SC(C)(C)C(=O)O)cc1 [Example 10, 2-{4-[3-(2-Ethyl-4-oxo-4H-quinazolin-3-yl)-propylamino]-phenylsulfanyl}-2-methyl-propionic acid]
100 to 102 | Cc1nc2ccccc2c(=O)n1CCCCNc1ccc(SC(C)(C)C(=O)O)cc1 [Example 14, 2-Methyl-2-{4-[4-(2-methyl-4-oxo-4H-quinazolin-3-yl)-butylamino]-phenylsulfanyl}-propionic acid]
58 to 62 | CCc1nc2ccccc2c(=O)n1CCCCNc1ccc(SC(C)(C)C(=O)O)cc1 [Example 16, 2-{4-[4-(2-Ethyl-4-oxo-4H-quinazolin-3-yl)-butylamino]-phenylsulfanyl}-2-methyl-propionic acid]
100 to 104 | CCCc1nc2ccccc2c(=O)n1CCCCNc1ccc(SC(C)(C)C(=O)O)cc1 [Example 18, 2-Methyl-2-{4-[4-(4-oxo-2-propyl-4H-quinazolin-3-yl)-butylamino]-phenylsulfanyl}-propionic acid]
104 to 108 | CCCc1nn(C)c2c(=O)n(CCOc3ccc(NC(C)C(=O)OCC)cc3)c(CC)nc12 (stereo not drawn) [Example 19, 2-{4-[2-(5-Ethyl-1-methyl-7-oxo-3-propyl-1,7-dihydro-pyrazolo[4,3-d]pyrimidin-6-yl)-ethoxy]-phenylamino}-propionic acid ethyl ester]
114 to 116 | CCOC(=O)C(C)(C)Sc1ccc(OCCn2c(C)nc3ccccc3c2=O)cc1 [Example 21, 2-Methyl-2-{4-[2-(2-methyl-4-oxo-4H-quinazolin-3-yl)-ethoxy]-phenylsulfanyl}-propionic acid ethyl ester]
188 to 190 | Cc1nc2ccccc2c(=O)n1CCOc1ccc(SC(C)(C)C(=O)O)cc1 [Example 22, 2-Methyl-2-{4-[2-(2-methyl-4-oxo-4H-quinazolin-3-yl)-ethoxy]-phenylsulfanyl}-propionic acid]
156 to 158 | CCc1nc2ccccc2c(=O)n1CCCOc1ccc(SC(C)(C)C(=O)O)cc1 [Example 24, 2-{4-[3-(2-Ethyl-4-oxo-4H-quinazolin-3-yl)-propoxy]-phenylsulfanyl}-2-methyl-propionic acid]
162 to 164 | CCOC(=O)C(C)(C)Sc1ccc(OCCCn2c(C)nc3ccccc3c2=O)cc1 [Example 25, 2-Methyl-2-{4-[3-(2-methyl-4-oxo-4H-quinazolin-3-yl)-propoxy]-phenylsulfanyl}-propionic acid ethyl ester]
144 to 146 | Cc1nc2ccccc2c(=O)n1CCCOc1ccc(SC(C)(C)C(=O)O)cc1 [Example 26, 2-Methyl-2-{4-[3-(2-methyl-4-oxo-4H-quinazolin-3-yl)-propoxy]-phenylsulfanyl}-propionic acid]
118 to 120 | CCCc1nn(CC)c2c(=O)n(CCCOc3ccc(SC(C)(C)C(=O)O)cc3)c(C)nc12 [Example 28, 2-{4-[3-(1-Ethyl-5-methyl-7-oxo-3-propyl-1,7-dihydro-pyrazolo[4,3-d]pyrimidin-6-yl)-propoxy]-phenylsulfanyl}-2-methyl-propionic acid]
96 to 98 | CCCc1nn(CC)c2c(=O)n(CCCOc3ccc(SC(C)(C)C(=O)O)cc3)c(CC)nc12 [Example 30, 2-{4-[3-(1,5-Diethyl-7-oxo-3-propyl-1,7-dihydro-pyrazolo[4,3-d]pyrimidin-6-yl)-propoxy]-phenylsulfanyl}-2-methyl-propionic acid]
106 to 108 | CCCc1nn(C)c2c(=O)n(CCOc3ccc(SC(C)(C)C(=O)OCC)cc3)c(C)nc12 [Example 31, 2-{4-[2-(1,5-Dimethyl-7-oxo-3-propyl-1,7-dihydro-pyrazolo[4,3-d]pyrimidin-6-yl)-ethoxy]-phenylsulfanyl}-2-methyl-propionic acid ethyl ester]
182 to 184 | CCCc1nn(C)c2c(=O)n(CCOc3ccc(SC(C)(C)C(=O)O)cc3)c(C)nc12 [Example 32, 2-{4-[2-(1,5-Dimethyl-7-oxo-3-propyl-1,7-dihydro-pyrazolo[4,3-d]pyrimidin-6-yl)-ethoxy]-phenylsulfanyl}-2-methyl-propionic acid]
120 to 122 | CCOC(=O)C(C)(C)Sc1ccc(OCCn2c(CC)nc3ccccc3c2=O)cc1 [Example 33, 2-{4-[2-(2-Ethyl-4-oxo-4H-quinazolin-3-yl)-ethoxy]-phenylsulfanyl}-2-methyl-propionic acid ethyl ester]
148 to 150 | CCc1nc2ccccc2c(=O)n1CCOc1ccc(SC(C)(C)C(=O)O)cc1 [Example 34, 2-{4-[2-(2-Ethyl-4-oxo-4H-quinazolin-3-yl)-ethoxy]-phenylsulfanyl}-2-methyl-propionic acid]
52 to 54 | CCCc1nn(C)c2c(=O)n(CCCOc3ccc(SC(C)(C)C(=O)OCC)cc3)c(C)nc12 [Example 35, 2-{4-[3-(1,5-Dimethyl-7-oxo-3-propyl-1,7-dihydro-pyrazolo[4,3-d]pyrimidin-6-yl)-propoxy]-phenylsulfanyl}-2-methyl-propionic acid ethyl ester]
52 to 54 | CCCc1nn(C)c2c(=O)n(CCCOc3ccc(SC(C)(C)C(=O)OCC)cc3)c(CC)nc12 [Example 39, 2-{4-[3-(5-Ethyl-1-methyl-7-oxo-3-propyl-1,7-dihydro-pyrazolo[4,3-d]pyrimidin-6-yl)-propoxy]-phenylsulfanyl}-2-methyl-propionic acid ethyl ester]
115 to 117 | CCCc1nn(C)c2c(=O)n(CCCOc3ccc(SC(C)(C)C(=O)O)cc3)c(CC)nc12 [Example 40, 2-{4-[3-(5-Ethyl-1-methyl-7-oxo-3-propyl-1,7-dihydro-pyrazolo[4,3-d]pyrimidin-6-yl)-propoxy]-phenylsulfanyl}-2-methyl-propionic acid]
105 to 107 | CCCc1nn(C)c2c(=O)n(CCNc3ccc(SC(C)(C)C(=O)OCC)cc3)c(CC)nc12 [Example 41, 2-{4-[2-(5-Ethyl-1-methyl-7-oxo-3-propyl-1,7-dihydro-pyrazolo[4,3-d]pyrimidin-6-yl)-ethylamino]-phenylsulfanyl}-2-methyl-propionic acid ethyl ester]
